From patent publication US6485922B1, “Methods for detecting compounds which modulate the activity of an LPA receptor” (Atairgin Technologies, Inc., priority 1997, dated 2002)

What was measured:
[1] = target: T1, human LPA receptor EDG-2 (Homo sapiens, UniProt Q92633); test: FUS1::lacZ (β-galactosidase) reporter assay in yeast expressing EDG-2; assay type: cell-based; conditions: for activity towards EDG-2 of liposome preparations on their own: liposomes without LPA; for activation of EDG-2 (FUS1::lacZ activity): concentrations up to 200 μM, S.C.+2% galactose
T1 construct: The EDG-2 coding region was amplified by RT-PCR using Pfu DNA polymerase; expressed in transfected cells; host or cells: Saccharomyces cerevisiae JEY5 (sst2-, far1, FUS1::lacZ), plasmid pYEUra3-Edg2 (pJE15), galactose-inducible
Experimental: SY2069 (Mata, far1-bad3, HIS3::pFUS1::HIS3, mfa2-Δ1::pFUS1::lacZ, ura3, leu2, ade1, arg4, trp1) was used to derive an sst2^− strain for subsequent studies. SST2 was disrupted using pBC14 (Dohlman, H. G., et al. (1996) Mol. Cell. Biol. 16(9), 5194-5209). pBC14 was digested with NcoI and transformed into SY2069 by lithium acetate using the URA3 gene for selection. Ura^+ colonies were grown in non-selective media (YEPD) and plated onto media containing 5-Flouro-orotic Acid (5-FOA, Sigma). The resultant 5-FOA resistant isolates were tested for the supersensitive phenotype by assaying lacZ activity in response to α-factor (data not shown). One sst2^− strain was named JEY5 and used in all subsequent studies. Yeast were grown in SC+2% Galactose or 2% Glucose media lacking Uracil.
Construction of EDG-2 Expression Plasmid and Expression in Yeast: The EDG-2 coding region was amplified by RT-PCR using Pfu DNA polymerase under conditions described by the supplier (Stratagene). The template for RT-PCR was cDNA (5 ng) that was reverse transcribed from human fetal brain total RNA (Clontech) using SuperScript II Reverse Transcriptase as described by the supplier (Gibco BRL). 1 μM each of the following primers, FP; 5′-[…]-3′ (SEQ ID NO. 2) and RP; 5′-[…]-3′ (SEQ ID NO. 3), were used for RT-PCR. Oligonucleotide Synthesis and DNA Sequencing: PCR primers and DNA sequencing primers were synthesized by the phosphoramidite method with an Applied Biosystems model 394 synthesizer, purified by polyacrylamide gel electrophoresis and desalted on Sep-Pak C18 cartridges (Waters Associates, Milford, Mass.). The edg-2 cDNA was sequenced in pYEUra3 by the dideoxy chain termination method using the T7 Sequenase7-deaza-dGTP sequencing kit as described by the supplier (Amersham Life Science). The primers were designed based on the human edg-2 cDNA sequence submitted to Genbank by Zondag and Moolenaar (accession no. Y09479) and included restriction site extensions for subcloning into the pYEUra3 vector (Stratagene). This placed the cDNA under the control of a galactose-inducible promoter (UASgal). The resulting plasmid was used to transform JEY5 by the lithium acetate method.
(§1) Expression of the EDG-2: To test the effects of the SST2 gene product on the edg-2 response to LPA, JEY5 (sst2Δ) expressing the EDG-2 receptor was compared to the parental SY2069 strain (SST2^+). […] As a control, JEY5+EDG-2 was assayed in 2% glucose such that the GAL1 promoter would be repressed and thus not expressing the edg-2 gene (glucose repression is described in detail by Johnston, M., and Carlson, M. (1992) in The molecular and cellular biology of the yeast Saccharomyces: gene expression (Broach, J. R., Pringle, J. R., and Jones, E. W., eds), pp. 193-281, Cold Spring Harbor Laborartory Press, Plainview, N.Y.). lacZ assays in response to phospholipids: JEY5+pJE15 was grown on SC media containing either 2% galactose or 2% glucose lacking uracil to an approximate optical density of 0.1-0.5 prior to the addition of lipid or α-factor. LPA and other glycerophospholipids (Avanti Polar Lipids) were dissolved in chloroform and dried down under vacuum immediately prior to experiments and resuspended in BBS/EDTA (50 mM NH4HCO3, 104 mM NaCl, 250 mM EDTA2Na) at 1 mg/ml with sonication until the solution was clear. Sphingosine-1-phosphate (Matreya) was resuspended in ethanol/water (9:1) pH 3.0 immediately prior to use. Fatty Acid Free Bovine Serum Albumin was obtained from Sigma (St. Louis, Mo.) and used at 0.1 mg/ml in BBS/EDTA. Cells were allowed to grow for the indicated time (7 hours for dose response experiments) prior to assaying. 100 μl of yeast culture were then added to 900 μl assay buffer (per liter: 60 mM Na2HPO4, 40 mM NaH2PO4, 10 mM KCl, 0.1 mM MgSO4, pH 7.0 plus 2.7 ml β-mercaptoethanol per liter) plus 50 μl 0.1%SDS+three drops Chloroform. Cells were vortexed for 10 seconds and incubated for 5 minutes at 28° C.

[2] = system: yeast cells; test: Toxicity of lipids to the yeast cells in the lacZ assay; assay type: cell-based, Saccharomyces cerevisiae; conditions: yeast culture
Experimental: as §1, with “[…] Color development” for “Fatty Acid Free Bovine Serum Albumin”, “measured at A420” for “obtained from Sigma (St. Louis, Mo.)”, “normalized to A600. Units” for “used at 0.1 mg/ml in BBS/EDTA. Cells”, “expressed as Miller Units. […]” for “allowed to grow for the indicated time (7 hours for dose response experiments) prior to assaying. 100 μl of yeast culture were then added to 900 μl assay buffer (per liter: 60 mM Na2HPO4, 40 mM NaH2PO4, 10 mM KCl, 0.1 mM MgSO4, pH 7.0 plus 2.7 ml β-mercaptoethanol per liter) plus 50 μl 0.1%SDS+three drops Chloroform. Cells were vortexed for 10 seconds and incubated for 5 minutes at 28° C.”

T1 sequence (Q92633 whole entry): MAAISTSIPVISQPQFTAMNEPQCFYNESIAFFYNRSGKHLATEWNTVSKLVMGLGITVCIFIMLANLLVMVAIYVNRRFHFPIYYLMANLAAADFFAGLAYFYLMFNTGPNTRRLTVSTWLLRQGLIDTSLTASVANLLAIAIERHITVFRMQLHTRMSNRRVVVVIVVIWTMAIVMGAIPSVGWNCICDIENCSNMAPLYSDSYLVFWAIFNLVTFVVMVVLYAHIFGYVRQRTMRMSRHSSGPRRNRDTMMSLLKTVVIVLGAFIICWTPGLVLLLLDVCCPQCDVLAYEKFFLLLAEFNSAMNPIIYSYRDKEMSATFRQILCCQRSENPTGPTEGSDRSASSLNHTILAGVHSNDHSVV

1-palmitoyl-2-oleoyl-phosphatidylglycerol
activity towards EDG-2 of liposome preparations on their own [1]: no activity

CCCCCCCCCCCCC/C=C/[C@@H](O)[C@@H](N)COP(=O)(O)O [Sphingosine-1-phosphate]
activation of EDG-2 (FUS1::lacZ activity) ([1]; seven hours): no other lyso-glycerolphospholipid or Sphingosine-1-phosphate activated EDG-2 as well as did LPA
activation of EDG-2 (FUS1::lacZ activity) ([1]; seven hours, listed as sphingosine-1-phosphate): does not respond

dioleoyl-phosphatidylcholine
activity towards EDG-2 of liposome preparations on their own [1]: no activity

1-acyl-2-hydroxy-sn-glycero-3-phosphate [LPA]
concentration at which toxicity was seen / above which testing was not possible due to toxicity [2]: above 600 μM
response of FUS1::lacZ to LPA, sst2- derivative ([1]; JEY5 (sst2Δ) expressing EDG-2, 200 μM LPA, galactose, seven hours): activated
activation of EDG-2 (FUS1::lacZ activity) ([1]; seven hours): specifically responds
response of FUS1::lacZ to LPA, SST2+ strain ([1]; parental SY2069 strain (SST2+) expressing EDG-2): unresponsive
maximal stimulation of lacZ activity as compared to vector control ([1]; time course, at 7 hours): four-fold
